# Legend:
# chickweed [1] = experiment: Test D preemergence; type: in vivo, Stellaria media; conditions: for Plant response rating, Chickweed: Preemergence, scale 0 to 100
# Description: (§1) Seeds of plant species selected from bluegrass (annual bluegrass, Poa annua), blackgrass (Alopecurus myosuroides), canarygrass (littleseed canarygrass, Phalaris minor), chickweed (common chickweed, Stellaria media), galium (catchweed bedstraw, Galium aparine), bromegrass, downy (downy bromegrass, Bromus tectorum), field poppy (Papaver rhoeas), field violet (Viola arvensis), foxtail, green (green foxtail, Setaria viridis), deadnettle (henbit deadnettle, Lamium amplexicaule), ryegrass, Italian (Italian ryegrass, Lolium multiflorum), kochia (Kochia scoparia), lambsquarters (Chenopodium album), oilseed rape (Brassica napus), pigweed (redroot pigweed, Amaranthus retroflexus), chamomile (scentless chamomile, Matricaria inodora), speedwell (bird's-eye speedwell, Veronica persica), barley, spring (spring barley, Hordeum vulgare), wheat, spring (spring wheat, Triticum aestivum), buckwheat, wild (wild buckwheat, Polygonum convolvulus), mustard, wild (wild mustard, Sinapis arvensis), oat, wild (wild oat, Avena fatua), radish, wild (wild radish, Raphanus raphanistrum), windgrass (Apera spica-venti), Russian thistle (Salsola kali), barley, winter (winter barley, Hordeum vulgare), and wheat, winter (winter wheat, Triticum aestivum) were planted into a silt loam soil and treated preemergence with test chemicals formulated in a non-phytotoxic solvent mixture which included a surfactant.
# (§2) At the same time, these species were planted in pots containing Redi-Earth® planting medium (Scotts Company, 14111 Scottslawn Road, Marysville, Ohio 43041) comprising spaghnum peat moss, vermiculite, wetting agent and starter nutrients and treated with postemergence applications of the test chemicals formulated in the same manner. Plants ranged in height from 2 to 18 cm (1- to 4-leaf stage). Treated plants and controls were maintained in a controlled growth environment for 14 to 21 days after which time all species were compared to controls and visually evaluated. Plant response ratings, summarized in Table D, are based on a scale of 0 to 100 where 0 is no effect and 100 is complete control. A dash (-) response means no test result.
# radish, wild = experiment: Test D preemergence; type: in vivo, Raphanus raphanistrum; conditions: for Plant response rating, Radish, Wild: Preemergence, scale 0 to 100
# In short: (§3)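 Preemergence: seeds sown in silt loam and sprayed with compounds in a non-phytotoxic solvent with surfactant; postemergence: plants at 2 to 18 cm (1- to 4-leaf stage) in peat-based medium treated likewise. After 14 to 21 days in controlled growth conditions, injury rated visually versus controls on 0 (no effect) to 100 (complete control) scale.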
# bluegrass = experiment: Test D postemergence; type: in vivo, Poa annua; conditions: scale 0 to 100
# In short: as §3
# field violet = experiment: Test D preemergence; type: in vivo, Viola arvensis; conditions: for Plant response rating, Field Violet: Preemergence, scale 0 to 100
# In short: as §3
# oilseed rape = experiment: Test D postemergence; type: in vivo, Brassica napus; conditions: scale 0 to 100
# In short: as §3
# ryegrass, Italian = experiment: Test D preemergence; type: in vivo, Lolium multiflorum; conditions: for Plant response rating, Ryegrass, Italian: Preemergence, scale 0 to 100
# In short: as §3
# buckwheat, wild [2] = experiment: Test D postemergence; type: in vivo, Polygonum convolvulus; conditions: scale 0 to 100
# In short: as §3
# mustard, wild = experiment: Test D preemergence; type: in vivo, Sinapis arvensis; conditions: Preemergence, scale 0 to 100
# In short: as §3
# chickweed [3] = experiment: Test D postemergence; type: in vivo, Stellaria media; conditions: scale 0 to 100
# In short: as §3
# wheat, winter = experiment: Test D postemergence; type: in vivo, Triticum aestivum; conditions: scale 0 to 100
# In short: as §3
# wheat, spring = experiment: Test D postemergence; type: in vivo, Triticum aestivum; conditions: scale 0 to 100
# In short: as §3
# field poppy = experiment: Test D postemergence; type: in vivo, Papaver rhoeas; conditions: scale 0 to 100
# In short: as §3
# foxtail, green = experiment: Test D preemergence; type: in vivo, Setaria viridis; conditions: for Plant response rating, Foxtail, Green: Preemergence, scale 0 to 100
# In short: as §3
# windgrass = experiment: Test D preemergence; type: in vivo, Apera spica-venti; conditions: for Plant response rating, Windgrass: Preemergence, scale 0 to 100
# In short: as §3
# pigweed = experiment: Test D preemergence; type: in vivo, Amaranthus retroflexus; conditions: Preemergence, scale 0 to 100
# In short: as §3
# buckwheat, wild [4] = experiment: Test D preemergence; type: in vivo, Polygonum convolvulus; conditions: for Plant response rating, Buckwheat, Wild: Preemergence, scale 0 to 100
# In short: as §3
# barley, spring = experiment: Test D preemergence; type: in vivo, Hordeum vulgare; conditions: for Plant response rating, Barley, Spring: Preemergence, scale 0 to 100
# In short: as §3
# barley, winter = experiment: Test D preemergence; type: in vivo, Hordeum vulgare; conditions: for Plant response rating, Barley, Winter: Preemergence, scale 0 to 100
# In short: as §3
# kochia = experiment: Test D preemergence; type: in vivo, Kochia scoparia; conditions: for Plant response rating, Kochia: Preemergence, scale 0 to 100
# In short: as §3
# galium = experiment: Test D preemergence; type: in vivo, Galium aparine; conditions: for Plant response rating, Galium: Preemergence, scale 0 to 100
# Description: as §1, §2
# [5] = 16 g ai/ha, taken as preemergence
structure (smiles),measurement,setting,value
CCc1cc(C(=O)NOC(C)C)nn1Cc1cccc(OC(F)(F)F)c1 [Compound 70],"Plant response rating (scale 0 to 100), Chickweed",chickweed [1]; [5],0
same,"Plant response rating, Chickweed",chickweed [1]; 31 g ai/ha,0
same,"Plant response rating, Chickweed",chickweed [1]; 62 g ai/ha,10
same,"Plant response rating, Chickweed",chickweed [1]; 125 g ai/ha,100
same,"Plant response rating, Chickweed",chickweed [1]; 250 g ai/ha,100
same,"Plant response rating (scale 0 to 100), Radish, Wild","radish, wild; [5]",0
same,"Plant response rating, Radish, Wild","radish, wild; 31 g ai/ha",0
same,"Plant response rating, Radish, Wild","radish, wild; 62 g ai/ha",0
same,"Plant response rating, Radish, Wild","radish, wild; 125 g ai/ha",100
same,"Plant response rating, Radish, Wild","radish, wild; 250 g ai/ha",100
same,"Plant response rating, Bluegrass","bluegrass; Postemergence, 16 g ai/ha",0
same,Bluegrass plant response rating,"bluegrass; Postemergence, 31 g ai/ha",0
same,Bluegrass plant response rating,"bluegrass; Postemergence, 125 g ai/ha",0
same,Bluegrass plant response rating,"bluegrass; Postemergence, 250 g ai/ha",0
same,Bluegrass plant response rating,"bluegrass; postemergence, 62 g ai/ha",0
same,"Plant response rating (scale 0 to 100), Field Violet",field violet; [5],0
same,"Plant response rating, Field Violet",field violet; 31 g ai/ha,0
same,"Plant response rating, Field Violet",field violet; 62 g ai/ha,0
same,"Plant response rating, Field Violet",field violet; 125 g ai/ha,50
same,"Plant response rating, Field Violet",field violet; 250 g ai/ha,50
same,"Plant response rating, Oilseed Rape","oilseed rape; Postemergence, 16 g ai/ha",20
same,Oilseed Rape plant response rating,"oilseed rape; Postemergence, 31 g ai/ha",40
same,Oilseed Rape plant response rating,"oilseed rape; Postemergence, 125 g ai/ha",60
same,Oilseed Rape plant response rating,"oilseed rape; Postemergence, 250 g ai/ha",80
same,Oilseed Rape plant response rating,"oilseed rape; postemergence, 62 g ai/ha",50
same,"Plant response rating (scale 0 to 100), Ryegrass, Italian","ryegrass, Italian; [5]",0
same,"Plant response rating, Ryegrass, Italian","ryegrass, Italian; 31 g ai/ha",0
same,"Plant response rating, Ryegrass, Italian","ryegrass, Italian; 62 g ai/ha",0
same,"Plant response rating, Ryegrass, Italian","ryegrass, Italian; 125 g ai/ha",20
same,"Plant response rating, Ryegrass, Italian","ryegrass, Italian; 250 g ai/ha",75
same,"Plant response rating, Buckwheat, Wild","buckwheat, wild [2]; Postemergence, 16 g ai/ha",10
same,"Buckwheat, Wild plant response rating","buckwheat, wild [2]; Postemergence, 31 g ai/ha",20
same,"Buckwheat, Wild plant response rating","buckwheat, wild [2]; Postemergence, 125 g ai/ha",20
same,"Buckwheat, Wild plant response rating","buckwheat, wild [2]; Postemergence, 250 g ai/ha",35
same,"Buckwheat, Wild plant response rating","buckwheat, wild [2]; postemergence, 62 g ai/ha",20
same,"Plant response rating, Mustard, Wild","mustard, wild; 31 g ai/ha",0
same,"Plant response rating, Mustard, Wild","mustard, wild; 62 g ai/ha",100
same,"Plant response rating, Mustard, Wild","mustard, wild; 125 g ai/ha",100
same,"Plant response rating, Mustard, Wild","mustard, wild; 250 g ai/ha",100
same,"Plant response rating, Chickweed","chickweed [3]; Postemergence, 16 g ai/ha",30
same,Chickweed plant response rating,"chickweed [3]; Postemergence, 31 g ai/ha",30
same,Chickweed plant response rating,"chickweed [3]; Postemergence, 125 g ai/ha",70
same,Chickweed plant response rating,"chickweed [3]; Postemergence, 250 g ai/ha",85
same,Chickweed plant response rating,"chickweed [3]; postemergence, 62 g ai/ha",70
same,"Plant response rating, Wheat, Winter","wheat, winter; Postemergence, 16 g ai/ha",0
same,"Wheat, Winter plant response rating","wheat, winter; Postemergence, 31 g ai/ha",0
same,"Wheat, Winter plant response rating","wheat, winter; Postemergence, 125 g ai/ha",5
same,"Wheat, Winter plant response rating","wheat, winter; Postemergence, 250 g ai/ha",10
same,"Wheat, Winter plant response rating","wheat, winter; postemergence, 62 g ai/ha",5
same,"Plant response rating, Wheat, Spring","wheat, spring; Postemergence, 16 g ai/ha",0
same,"Wheat, Spring plant response rating","wheat, spring; Postemergence, 31 g ai/ha",5
same,"Wheat, Spring plant response rating","wheat, spring; Postemergence, 125 g ai/ha",5
same,"Wheat, Spring plant response rating","wheat, spring; Postemergence, 250 g ai/ha",10
same,"Wheat, Spring plant response rating","wheat, spring; postemergence, 62 g ai/ha",5
same,"Plant response rating, Field Poppy","field poppy; Postemergence, 16 g ai/ha",20
same,Field Poppy plant response rating,"field poppy; Postemergence, 31 g ai/ha",70
same,Field Poppy plant response rating,"field poppy; Postemergence, 125 g ai/ha",80
same,Field Poppy plant response rating,"field poppy; Postemergence, 250 g ai/ha",100
same,Field Poppy plant response rating,"field poppy; postemergence, 62 g ai/ha",75
same,"Plant response rating (scale 0 to 100), Foxtail, Green","foxtail, green; [5]",0
same,"Plant response rating, Foxtail, Green","foxtail, green; 31 g ai/ha",0
same,"Plant response rating, Foxtail, Green","foxtail, green; 62 g ai/ha",0
same,"Plant response rating, Foxtail, Green","foxtail, green; 125 g ai/ha",20
same,"Plant response rating, Foxtail, Green","foxtail, green; 250 g ai/ha",100
same,"Plant response rating (scale 0 to 100), Windgrass",windgrass; [5],0
same,"Plant response rating, Windgrass",windgrass; 31 g ai/ha,0
same,"Plant response rating, Windgrass",windgrass; 62 g ai/ha,0
same,"Plant response rating, Windgrass",windgrass; 125 g ai/ha,0
same,"Plant response rating, Windgrass",windgrass; 250 g ai/ha,0
same,"Plant response rating, Pigweed",pigweed; 62 g ai/ha,0
same,"Plant response rating, Pigweed",pigweed; 250 g ai/ha,75
same,"Plant response rating (scale 0 to 100), Buckwheat, Wild","buckwheat, wild [4]; [5]",0
same,"Plant response rating, Buckwheat, Wild","buckwheat, wild [4]; 31 g ai/ha",0
same,"Plant response rating, Buckwheat, Wild","buckwheat, wild [4]; 62 g ai/ha",0
same,"Plant response rating, Buckwheat, Wild","buckwheat, wild [4]; 125 g ai/ha",0
same,"Plant response rating, Buckwheat, Wild","buckwheat, wild [4]; 250 g ai/ha",100
same,"Plant response rating (scale 0 to 100), Barley, Spring","barley, spring; 16 g ai/ha, taken as preemergence, 0 = no effect, 100 = complete control",0
same,"Plant response rating, Barley, Spring","barley, spring; 31 g ai/ha",0
same,"Plant response rating, Barley, Spring","barley, spring; 62 g ai/ha",0
same,"Plant response rating, Barley, Spring","barley, spring; 125 g ai/ha",0
same,"Plant response rating, Barley, Spring","barley, spring; 250 g ai/ha",15
same,"Plant response rating (scale 0 to 100), Barley, Winter","barley, winter; [5]",0
same,"Plant response rating, Barley, Winter","barley, winter; 31 g ai/ha",0
same,"Plant response rating, Barley, Winter","barley, winter; 62 g ai/ha",0
same,"Plant response rating, Barley, Winter","barley, winter; 125 g ai/ha",0
same,"Plant response rating, Barley, Winter","barley, winter; 250 g ai/ha",10
same,"Plant response rating (scale 0 to 100), Kochia",kochia; [5],0
same,"Plant response rating, Kochia",kochia; 31 g ai/ha,10
same,"Plant response rating, Kochia",kochia; 62 g ai/ha,20
same,"Plant response rating, Kochia",kochia; 125 g ai/ha,30
same,"Plant response rating, Kochia",kochia; 250 g ai/ha,50
same,"Plant response rating (scale 0 to 100), Galium",galium; [5],0
same,"Plant response rating, Galium",galium; 31 g ai/ha,0
same,"Plant response rating, Galium",galium; 62 g ai/ha,10
same,"Plant response rating, Galium",galium; 250 g ai/ha,40

# Source: patent US20150105252A1, “SUBSTITUTED PYRAZOLES AS HERBICIDES” (E I DU PONT DE NEMOURS AND COMPANY, priority 2013, published 2015)
